# Assay results published in ChEMBL document CHEMBL4619816, “GSK973 Is an Inhibitor of the Second Bromodomains (BD2s) of the Bromodomain and Extra-Terminal (BET) Family” (ACS Med Chem Lett, 2020).
# Calls of active or inactive are those of the source. The calls are words filed in the database; no cut-off is given here.
# Assays:
# [1] = Volume of distribution at steady state in Beagle dog at 1 mg/kg, iv; format: ADME, organism-based, Canis lupus familiaris; settings: in vivo, read-out: Vdss
# Blood = assay: Inhibition of LPS-induced MCP1 production in human whole blood preincubated for 30 mins followed by LPS addition measured after 24 hrs by immuno assay; format: functional, tissue-based
# [2] = molecular target: Protein polybromo-1 (Homo sapiens) (UniProt Q86U86); assay: Inhibition of human partial length PBRM1 bromodomain 5 (S645 to D766 residues) expressed in bacterial expression system by BROMOscan assay
# Chain of Protein polybromo-1 (Homo sapiens) (Q86U86 whole entry, the tested form may be a part): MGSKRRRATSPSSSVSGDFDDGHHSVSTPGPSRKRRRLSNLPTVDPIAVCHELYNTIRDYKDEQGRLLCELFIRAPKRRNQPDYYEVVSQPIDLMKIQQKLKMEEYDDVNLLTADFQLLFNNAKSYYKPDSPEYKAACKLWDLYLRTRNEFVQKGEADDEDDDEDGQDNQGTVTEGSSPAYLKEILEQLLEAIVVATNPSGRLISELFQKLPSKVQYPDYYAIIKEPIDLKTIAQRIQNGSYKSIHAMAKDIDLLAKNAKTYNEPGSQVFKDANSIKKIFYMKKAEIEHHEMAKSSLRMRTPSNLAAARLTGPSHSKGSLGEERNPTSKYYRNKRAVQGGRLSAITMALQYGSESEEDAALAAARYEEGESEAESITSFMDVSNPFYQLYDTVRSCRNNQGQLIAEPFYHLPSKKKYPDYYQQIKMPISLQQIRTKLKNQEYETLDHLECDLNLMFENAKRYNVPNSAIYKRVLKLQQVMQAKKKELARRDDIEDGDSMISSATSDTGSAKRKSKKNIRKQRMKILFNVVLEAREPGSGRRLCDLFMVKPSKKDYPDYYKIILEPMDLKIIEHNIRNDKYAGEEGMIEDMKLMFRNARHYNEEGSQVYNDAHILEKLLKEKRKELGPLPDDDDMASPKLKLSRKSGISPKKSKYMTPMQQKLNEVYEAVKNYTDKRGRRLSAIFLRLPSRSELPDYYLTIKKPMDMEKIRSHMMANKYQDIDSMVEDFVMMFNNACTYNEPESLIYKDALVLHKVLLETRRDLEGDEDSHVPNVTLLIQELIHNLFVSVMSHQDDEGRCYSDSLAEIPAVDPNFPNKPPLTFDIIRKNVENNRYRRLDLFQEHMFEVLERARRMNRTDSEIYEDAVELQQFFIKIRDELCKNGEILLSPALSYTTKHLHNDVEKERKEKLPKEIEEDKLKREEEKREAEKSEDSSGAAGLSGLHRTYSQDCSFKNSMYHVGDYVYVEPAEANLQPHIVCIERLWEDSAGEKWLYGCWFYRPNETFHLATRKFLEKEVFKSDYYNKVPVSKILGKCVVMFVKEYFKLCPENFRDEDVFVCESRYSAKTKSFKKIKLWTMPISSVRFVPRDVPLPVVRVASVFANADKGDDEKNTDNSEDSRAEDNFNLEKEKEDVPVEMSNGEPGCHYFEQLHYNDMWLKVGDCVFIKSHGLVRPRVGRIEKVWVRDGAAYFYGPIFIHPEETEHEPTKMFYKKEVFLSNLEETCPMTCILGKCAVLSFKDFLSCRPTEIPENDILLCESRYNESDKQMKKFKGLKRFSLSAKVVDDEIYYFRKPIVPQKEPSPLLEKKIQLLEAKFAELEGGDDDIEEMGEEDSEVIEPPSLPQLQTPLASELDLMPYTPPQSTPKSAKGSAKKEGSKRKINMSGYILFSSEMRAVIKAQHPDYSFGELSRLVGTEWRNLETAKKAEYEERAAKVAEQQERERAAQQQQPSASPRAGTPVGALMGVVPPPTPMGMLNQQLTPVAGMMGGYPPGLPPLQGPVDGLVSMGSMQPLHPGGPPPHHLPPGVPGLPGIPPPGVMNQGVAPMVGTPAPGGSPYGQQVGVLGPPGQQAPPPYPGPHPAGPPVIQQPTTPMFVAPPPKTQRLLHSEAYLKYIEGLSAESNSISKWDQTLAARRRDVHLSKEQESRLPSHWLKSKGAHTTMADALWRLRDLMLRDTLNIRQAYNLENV
# [3] = molecular target: CREB-binding protein (Homo sapiens) (UniProt Q92793); assay: Inhibition of human partial length CREBBP (R1081 to G1197 residues) expressed in bacterial expression system by BROMOscan assay
# Chain of CREB-binding protein (Homo sapiens) (Q92793 2-2442 limits assumed): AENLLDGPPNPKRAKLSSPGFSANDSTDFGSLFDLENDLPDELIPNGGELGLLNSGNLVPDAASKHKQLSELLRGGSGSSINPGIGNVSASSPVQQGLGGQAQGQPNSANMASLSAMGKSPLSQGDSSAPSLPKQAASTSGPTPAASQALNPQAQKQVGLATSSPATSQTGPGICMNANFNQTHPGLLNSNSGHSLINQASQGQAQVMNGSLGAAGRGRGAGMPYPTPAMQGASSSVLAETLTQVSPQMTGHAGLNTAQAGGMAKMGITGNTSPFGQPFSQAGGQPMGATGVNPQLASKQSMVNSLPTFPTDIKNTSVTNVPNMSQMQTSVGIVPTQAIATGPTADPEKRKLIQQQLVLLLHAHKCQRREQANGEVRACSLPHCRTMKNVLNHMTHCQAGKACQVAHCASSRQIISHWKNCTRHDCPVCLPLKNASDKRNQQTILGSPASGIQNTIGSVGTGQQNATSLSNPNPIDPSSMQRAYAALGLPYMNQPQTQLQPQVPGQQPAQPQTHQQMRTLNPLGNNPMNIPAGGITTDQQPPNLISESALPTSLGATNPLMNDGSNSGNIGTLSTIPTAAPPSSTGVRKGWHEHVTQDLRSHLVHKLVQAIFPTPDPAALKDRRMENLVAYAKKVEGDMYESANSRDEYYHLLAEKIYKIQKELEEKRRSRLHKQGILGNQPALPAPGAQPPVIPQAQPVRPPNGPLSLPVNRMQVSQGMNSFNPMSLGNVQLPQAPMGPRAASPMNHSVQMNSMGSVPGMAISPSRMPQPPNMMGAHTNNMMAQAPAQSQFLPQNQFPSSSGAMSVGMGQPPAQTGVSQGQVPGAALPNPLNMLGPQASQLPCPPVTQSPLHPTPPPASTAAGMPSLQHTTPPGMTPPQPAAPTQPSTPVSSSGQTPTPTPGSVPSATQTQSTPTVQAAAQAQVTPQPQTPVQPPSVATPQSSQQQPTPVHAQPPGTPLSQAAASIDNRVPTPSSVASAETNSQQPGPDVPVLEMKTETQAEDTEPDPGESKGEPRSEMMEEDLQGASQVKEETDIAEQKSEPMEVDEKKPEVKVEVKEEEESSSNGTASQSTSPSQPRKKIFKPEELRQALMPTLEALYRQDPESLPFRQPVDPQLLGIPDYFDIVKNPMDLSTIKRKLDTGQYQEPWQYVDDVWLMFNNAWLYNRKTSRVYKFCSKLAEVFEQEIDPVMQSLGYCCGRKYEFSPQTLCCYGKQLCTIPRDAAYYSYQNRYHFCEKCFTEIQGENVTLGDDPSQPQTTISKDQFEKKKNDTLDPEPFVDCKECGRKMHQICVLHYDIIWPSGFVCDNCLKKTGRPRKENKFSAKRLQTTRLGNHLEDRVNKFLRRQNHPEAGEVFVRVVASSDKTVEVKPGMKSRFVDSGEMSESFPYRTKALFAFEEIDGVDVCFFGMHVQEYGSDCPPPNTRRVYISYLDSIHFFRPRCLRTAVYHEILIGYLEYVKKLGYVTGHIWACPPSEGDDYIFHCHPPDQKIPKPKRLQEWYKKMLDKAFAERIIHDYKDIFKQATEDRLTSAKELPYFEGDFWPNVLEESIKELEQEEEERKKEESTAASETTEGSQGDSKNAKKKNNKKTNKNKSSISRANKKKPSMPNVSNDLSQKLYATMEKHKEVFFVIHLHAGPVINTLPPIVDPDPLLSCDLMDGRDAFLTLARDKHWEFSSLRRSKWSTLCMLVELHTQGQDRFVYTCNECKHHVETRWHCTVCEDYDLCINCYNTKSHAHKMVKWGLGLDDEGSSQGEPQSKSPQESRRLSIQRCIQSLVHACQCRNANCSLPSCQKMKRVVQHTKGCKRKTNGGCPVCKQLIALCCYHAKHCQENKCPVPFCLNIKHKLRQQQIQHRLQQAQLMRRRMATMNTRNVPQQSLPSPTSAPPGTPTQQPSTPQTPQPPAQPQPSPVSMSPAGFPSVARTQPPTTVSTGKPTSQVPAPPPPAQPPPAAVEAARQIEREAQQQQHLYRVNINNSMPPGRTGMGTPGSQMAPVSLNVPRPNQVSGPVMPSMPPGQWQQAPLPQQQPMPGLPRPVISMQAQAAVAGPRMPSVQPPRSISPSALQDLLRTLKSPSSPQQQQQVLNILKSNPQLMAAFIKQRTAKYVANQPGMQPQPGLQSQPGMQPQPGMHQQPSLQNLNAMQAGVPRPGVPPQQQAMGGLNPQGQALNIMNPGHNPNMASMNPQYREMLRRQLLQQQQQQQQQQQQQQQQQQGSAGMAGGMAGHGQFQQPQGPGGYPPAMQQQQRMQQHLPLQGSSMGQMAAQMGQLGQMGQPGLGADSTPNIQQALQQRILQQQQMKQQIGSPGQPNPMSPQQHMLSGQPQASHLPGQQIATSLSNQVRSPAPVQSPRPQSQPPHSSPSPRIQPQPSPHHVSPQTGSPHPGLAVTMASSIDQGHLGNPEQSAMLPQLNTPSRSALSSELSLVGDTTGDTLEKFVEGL
# [4] = Oral bioavailability in Wistar Han rat at 3 mg/kg measured up to 24 hrs by LC-MS/MS analysis; format: ADME, organism-based; settings: in vivo
# [5] = molecular target: Transcription initiation factor TFIID subunit 1 (Homo sapiens) (UniProt P21675); assay: Inhibition of human partial length TAF1 bromodomain 2 (D1521 to D1656 residues) expressed in bacterial expression system by BROMOscan assay
# [6] = molecular target: Bromodomain-containing protein 3 (Homo sapiens) (UniProt Q15059); assay: Inhibition of human partial length BRD3 bromodomain 2 (G306 to P416 residues) expressed in bacterial expression system by BROMOscan assay
# Chain of Bromodomain-containing protein 3 (Homo sapiens) (Q15059 2-726 limits assumed): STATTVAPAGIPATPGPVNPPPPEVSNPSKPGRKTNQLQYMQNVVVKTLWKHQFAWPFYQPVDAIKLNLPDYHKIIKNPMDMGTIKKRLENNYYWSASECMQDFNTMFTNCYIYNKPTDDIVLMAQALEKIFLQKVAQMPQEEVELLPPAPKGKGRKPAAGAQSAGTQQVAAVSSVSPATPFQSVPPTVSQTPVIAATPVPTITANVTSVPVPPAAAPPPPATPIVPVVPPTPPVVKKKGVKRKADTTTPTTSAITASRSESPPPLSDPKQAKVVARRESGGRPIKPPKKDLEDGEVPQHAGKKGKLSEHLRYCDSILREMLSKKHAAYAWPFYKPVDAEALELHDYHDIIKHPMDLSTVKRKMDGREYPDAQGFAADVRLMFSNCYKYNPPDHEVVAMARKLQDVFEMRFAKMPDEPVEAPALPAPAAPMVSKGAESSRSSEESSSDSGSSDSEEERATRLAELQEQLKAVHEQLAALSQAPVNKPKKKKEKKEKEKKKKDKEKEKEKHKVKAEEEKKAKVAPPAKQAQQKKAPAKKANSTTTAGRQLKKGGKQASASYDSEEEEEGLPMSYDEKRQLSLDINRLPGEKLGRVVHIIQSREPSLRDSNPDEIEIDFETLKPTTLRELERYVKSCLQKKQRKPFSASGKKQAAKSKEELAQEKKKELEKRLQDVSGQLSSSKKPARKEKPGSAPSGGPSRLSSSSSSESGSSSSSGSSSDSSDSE
# [7] = molecular target: Histone acetyltransferase p300 (Homo sapiens) (UniProt Q09472); assay: Inhibition of human partial length EP300 (A1040 to G1161 residues) expressed in bacterial expression system by BROMOscan assay
# [8] = molecular target: Bromodomain-containing protein 2 (Homo sapiens) (UniProt P25440); assay: Inhibition of human partial length BRD2 bromodomain 2 isoform 1 (E348 to D455 residues) expressed in bacterial expression system by BROMOscan assay
# [9] = molecular target: SWI/SNF-related matrix-associated actin-dependent regulator of chromatin subfamily A member 2 (Homo sapiens) (UniProt P51531); assay: Inhibition of human partial length SMARCA2 (S1377 to Q1486 residues) expressed in bacterial expression system by BROMOscan assay
# Peregrin (Homo sapiens) = Peregrin (Homo sapiens) (UniProt P55201); assay: Inhibition of human partial length BRPF1 (E627 to G740 residues) expressed in bacterial expression system by BROMOscan assay
# [10] = Clearance in Wistar Han rat hepatocytes assessed as per gram tissue at 0.5 uM measured up to 1 hr by LC-MS/MS analysis; format: ADME, cell-based, Hepatocyte
# [11] = molecular target: Bromodomain-containing protein 7 (Homo sapiens) (UniProt Q9NPI1); assay: Inhibition of human partial length BRD7 (L125 to R254 residues) expressed in mammalian expression system by BROMOscan assay
structure (smiles),measurement,setting,value
CNC(=O)c1cc(C(=O)N[C@@H]2[C@@H]3COC[C@@H]32)cc2c1O[C@H](CF)[C@H]2c1ccccc1,Vd,[1],1.3 L/kg
same,IC50,Blood,50.1 nM
same,inhibition,[2],inactive
same,inhibition,[3],inactive
same,bioavailability,[4],48%
same,inhibition,[5],inactive
same,inhibition,[6],inactive
same,inhibition,[7],inactive
same,inhibition,[8],inactive
same,inhibition,[9],inactive
same,inhibition,Peregrin (Homo sapiens),inactive
same,CLH,[10],1.76 mL/min/g
same,inhibition,[11],inactive
